Source: ChEMBL document CHEMBL5120780, “Novel indazole skeleton derivatives containing 1,2,3-triazole as potential anti-prostate cancer drugs” (Bioorg Med Chem Lett, 2022)

Assays:
MGC-803 = assay: Antiproliferative activity against human MGC-803 cells assessed as inhibition of cell growth incubated for 72 hrs by MTT assay; type: functional, cell-based; details: MGC-803, 72 h
MCF7 = assay: Antiproliferative activity against human MCF7 cells assessed as inhibition of cell growth incubated for 72 hrs by MTT assay; type: functional, cell-based; details: MCF7, 72 h
HepG2 = assay: Antiproliferative activity against human HepG2 cells assessed as inhibition of cell growth incubated for 72 hrs by MTT assay; type: functional, cell-based; details: HepG2, 72 h
PC-3 [1] = assay: Antiproliferative activity against human PC-3 cells assessed as inhibition of cell growth incubated for 72 hrs by MTT assay; type: functional, cell-based; details: PC-3, 72 h
[2] = Cytotoxicity against human WPMY-1 cells assessed as inhibition of cell growth incubated for 72 hrs by MTT assay; type: toxicity, cell-based
[3] = Selectivity ratio of IC50 for cytotoxicity against human WPMY-1 cells to IC50 for antiproliferative activity against human PC-3 cells; type: toxicity, cell-based; details: WPMY-1 cells and PC-3 cells, read-out: Ratio IC50
[4] = Toxicity in wild type KM mouse assessed as change in liver morphology at 2 g/Kg, IG measured for 2 weeks by H and E staining based microscopic analysis; type: tissue-based; details: in vivo, po, 2000 mg/kg, 336 h
PC-3 [5] = assay: Induction of cell cycle arrest in human PC-3 cells assessed as accumulation of cells in G2/M phase at 8 uM incubated for 24 hrs by RNase/PI staining based flow cytometry analysis (reference value: 22.17%); type: functional
[6] = Toxicity in wild type KM mouse assessed as behavioral abnormalities at 2 g/Kg, IG measured for 2 weeks; details: in vivo, po, 2000 mg/kg, 336 h
[7] = Toxicity in wild type KM mouse assessed as animal survival at 2 g/Kg, IG measured for 2 weeks; details: in vivo, po, 2000 mg/kg, 336 h
[8] = Toxicity in wild type KM mouse assessed as change in heart morphology at 2 g/Kg, IG measured for 2 weeks by H and E staining based microscopic analysis; type: tissue-based; details: in vivo, po, 2000 mg/kg, 336 h
[9] = Toxicity in wild type KM mouse assessed as change in lung morphology at 2 g/Kg, IG measured for 2 weeks by H and E staining based microscopic analysis; details: in vivo, po, 2000 mg/kg, 336 h
PC-3 [10] = assay: Inhibition of colony formation in human PC-3 cells incubated for 7 days by crystal violet staining based analysis; type: functional, cell-based; details: dose 2-8 µM, time 7.0 day, DDE = dose-dependent effect
[11] = Toxicity in wild type KM mouse assessed as change in spleen morphology at 2 g/Kg, IG measured for 2 weeks by H and E staining based microscopic analysis; details: in vivo, po, 2000 mg/kg, 336 h
[12] = Toxicity in wild type KM mouse assessed as change in prostate morphology at 2 g/Kg, IG measured for 2 weeks by H and E staining based microscopic analysis; details: in vivo, po, 2000 mg/kg, 336 h
[13] = Toxicity in wild type KM mouse assessed as change in kidney morphology at 2 g/Kg, IG measured for 2 weeks by H and E staining based microscopic analysis; details: in vivo, po, 2000 mg/kg, 336 h

| Compound | IC50 (MGC-803) | IC50 (MCF7) | IC50 (HepG2) | IC50 (PC-3 [1]) | further results |
| --- | --- | --- | --- | --- | --- |
| CC(C)n1ncc2c(C(=O)NCc3cn(-c4ccccc4)nn3)cccc21 | > 40 µM | > 40 µM | > 40 µM | 25.9 µM |  |
| CCc1ccc(-n2cc(CNC(=O)c3cccc4c3cnn4C(C)C)nn2)cc1 | > 40 µM | > 40 µM | > 40 µM | 26.6 µM |  |
| CC(C)n1ncc2c(C(=O)NCc3cn(-c4ccc(F)cc4)nn3)cccc21 | > 40 µM | > 40 µM | > 40 µM | > 40 µM |  |
| CC(C)n1ncc2c(C(=O)NCCN3CCCC3)cccc21 | > 40 µM | > 40 µM | > 40 µM | > 40 µM |  |
| CC(C)n1ncc2c(C(=O)NCc3cn(-c4cccc(F)c4)nn3)cccc21 | > 40 µM | > 40 µM | > 40 µM | 36.1 µM |  |
| CC(C)n1ncc2c(C(=O)NCc3cn(Cc4ccc(C(C)(C)C)cc4)nn3)cccc21 | > 40 µM | > 40 µM | > 40 µM | 8.89 µM |  |
| CC(C)n1ncc2c(C(=O)NCCN3CCN(C)CC3)cccc21 | > 40 µM | > 40 µM | > 40 µM | > 40 µM |  |
| CC(C)n1ncc2c(C(=O)NCc3cn(-c4ccccc4F)nn3)cccc21 | > 40 µM | > 40 µM | > 40 µM | > 40 µM |  |
| COc1ccc(Cn2cc(CNC(=O)c3cccc4c3cnn4C(C)C)nn2)cc1 | > 40 µM | > 40 µM | > 40 µM | 34 µM |  |
| CC(C)n1ncc2c(C(=O)NCc3cn(-c4ccc(I)cc4)nn3)cccc21 | > 40 µM | > 40 µM | > 40 µM | > 40 µM |  |
| COc1ccc(-n2cc(CNC(=O)c3cccc4c3cnn4C(C)C)nn2)cc1 | > 40 µM | > 40 µM | > 40 µM | 34.3 µM |  |
| Cc1ccc(-n2cc(CNC(=O)c3cccc4c3cnn4C(C)C)nn2)cc1 | > 40 µM | > 40 µM | > 40 µM | 39 µM |  |
| CNC(=O)c1ccc(N2C(=S)N(c3ccc(C#N)c(C(F)(F)F)c3)C(=O)C2(C)C)cc1F [ENZALUTAMIDE] |  |  |  | 24.6 µM | IC50 at 72 h [2]: 61.4 µM; selectivity ratio [3]: 2.49 |
| CC(C)n1ncc2c(C(=O)NCCN3CCCCC3)cccc21 | > 40 µM | > 40 µM | > 40 µM | > 40 µM |  |
| CC(C)n1ncc2c(C(=O)NCc3cn(-c4ccc(C(F)(F)F)cc4)nn3)cccc21 | > 40 µM | > 40 µM | > 40 µM | 38.6 µM |  |
| CC(C)n1ncc2c(C(=O)NCc3cn(-c4ccc([N+](=O)[O-])cc4)nn3)cccc21 | > 40 µM | > 40 µM | > 40 µM | > 40 µM |  |
| CC(C)n1ncc2c(C(=O)NCc3cn(Cc4ccc(C#N)cc4)nn3)cccc21 | 39.6 µM | > 40 µM | > 40 µM | 18.2 µM |  |
| Cc1ccc(-n2cc(CNC(=O)c3cccc4c3cnn4C(C)C)nn2)cc1C | > 40 µM | > 40 µM | > 40 µM | 23.4 µM |  |
| CC(C)n1ncc2c(C(=O)NCCN(C)C)cccc21 | > 40 µM | > 40 µM | > 40 µM | > 40 µM |  |
| CC(C)n1ncc2c(C(=O)NCc3cn(-c4cccc(Br)c4)nn3)cccc21 | > 40 µM | > 40 µM | > 40 µM | 33.7 µM |  |
| CC(C)n1ncc2c(C(=O)NC3CCCC3)cccc21 | > 40 µM | > 40 µM | > 40 µM | 19.4 µM |  |
| CC(C)n1ncc2c(C(=O)Nc3cccnc3)cccc21 | > 40 µM | > 40 µM | > 40 µM | > 40 µM |  |
| Cc1ccccc1-n1cc(CNC(=O)c2cccc3c2cnn3C(C)C)nn1 | > 40 µM | > 40 µM | > 40 µM | 19.2 µM |  |
| CC(C)n1ncc2c(C(=O)NCc3cn(Cc4ccccc4)nn3)cccc21 | 14.3 µM | 9.17 µM | 13.7 µM | 4.42 µM | Activity [4]: Non-Toxic; Activity (PC-3 [5]): 72.25%; IC50 at 72 h [2]: 20.3 µM; selectivity ratio [3]: 4.42; Activity [6]: Non-Toxic; Activity [7]: Non-Toxic; Activity [8]: Non-Toxic; Activity [9]: Non-Toxic; inhibition (PC-3 [10]): Dde; Activity [11]: Non-Toxic; Activity [12]: Non-Toxic; Activity [13]: Non-Toxic |
| CC(C)n1ncc2c(C(=O)NCc3cn(Cc4ccc(C(F)(F)F)cc4)nn3)cccc21 | > 40 µM | > 40 µM | > 40 µM | 23.9 µM |  |
| O=c1[nH]cc(F)c(=O)[nH]1 [FLUOROURACIL] |  | 15.1 µM | 11.7 µM |  |  |
| Cc1cccc(-n2cc(CNC(=O)c3cccc4c3cnn4C(C)C)nn2)c1 | > 40 µM | > 40 µM | > 40 µM | 32.3 µM |  |
| CC(C)n1ncc2c(C(=O)NCc3ccccc3)cccc21 | > 40 µM | > 40 µM | > 40 µM | 15.2 µM |  |
| CC(C)n1ncc2c(C(=O)Nc3ccccc3)cccc21 | 38.5 µM | 19.7 µM | 23.7 µM | 11.9 µM |  |
| Cc1ccc(-n2cc(CNC(=O)c3cccc4c3cnn4C(C)C)nn2)c(C)c1 | > 40 µM | > 40 µM | > 40 µM | 10.6 µM |  |
